In ChEMBL document CHEMBL1132519, “Synthesis and sar of 2- and 3-substituted 7-azaindoles as potential dopamine D4 ligands” (Bioorg Med Chem Lett, 1999):

Assays:
D(2) dopamine receptor = D(2) dopamine receptor (Homo sapiens, UniProt P14416)
Description: Ability to displace [3H]spiperone from cloned human dopamine D2 receptor stably expressed in CHO cells

D(4) dopamine receptor = target: T1, D(4) dopamine receptor (Homo sapiens, UniProt P21917)
T1 sequence (P21917 whole entry): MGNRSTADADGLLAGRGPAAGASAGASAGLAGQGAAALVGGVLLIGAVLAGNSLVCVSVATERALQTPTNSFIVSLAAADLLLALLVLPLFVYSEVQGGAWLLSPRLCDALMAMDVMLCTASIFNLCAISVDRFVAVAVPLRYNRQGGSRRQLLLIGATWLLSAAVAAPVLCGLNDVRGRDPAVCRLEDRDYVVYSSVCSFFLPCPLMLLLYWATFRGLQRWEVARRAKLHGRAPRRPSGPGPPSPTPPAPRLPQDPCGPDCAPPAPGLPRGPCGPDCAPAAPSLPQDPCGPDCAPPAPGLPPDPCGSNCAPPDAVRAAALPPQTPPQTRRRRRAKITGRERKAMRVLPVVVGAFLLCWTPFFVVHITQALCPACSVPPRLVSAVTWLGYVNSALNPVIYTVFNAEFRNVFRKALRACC
Description: Ability to displace [3H]spiperone from cloned human dopamine D4 receptor stably expressed in HEK293 cells

D(3) dopamine receptor = D(3) dopamine receptor (Homo sapiens, UniProt P35462)
Sequence of D(3) dopamine receptor (P35462 whole entry): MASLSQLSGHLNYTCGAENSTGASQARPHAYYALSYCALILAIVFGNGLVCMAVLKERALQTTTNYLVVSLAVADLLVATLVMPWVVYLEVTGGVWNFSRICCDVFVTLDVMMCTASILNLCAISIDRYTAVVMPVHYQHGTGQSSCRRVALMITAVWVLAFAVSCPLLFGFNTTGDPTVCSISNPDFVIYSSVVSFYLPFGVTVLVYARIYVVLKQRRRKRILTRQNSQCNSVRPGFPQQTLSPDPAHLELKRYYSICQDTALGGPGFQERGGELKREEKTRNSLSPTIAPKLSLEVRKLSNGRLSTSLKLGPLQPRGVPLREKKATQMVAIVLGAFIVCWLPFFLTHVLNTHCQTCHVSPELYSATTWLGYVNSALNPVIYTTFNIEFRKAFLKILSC
Description: Ability to displace [3H]-spiperone from cloned human dopamine D3 receptor stably expressed in CHO cells

Sequence of D(2) dopamine receptor (P14416 whole entry): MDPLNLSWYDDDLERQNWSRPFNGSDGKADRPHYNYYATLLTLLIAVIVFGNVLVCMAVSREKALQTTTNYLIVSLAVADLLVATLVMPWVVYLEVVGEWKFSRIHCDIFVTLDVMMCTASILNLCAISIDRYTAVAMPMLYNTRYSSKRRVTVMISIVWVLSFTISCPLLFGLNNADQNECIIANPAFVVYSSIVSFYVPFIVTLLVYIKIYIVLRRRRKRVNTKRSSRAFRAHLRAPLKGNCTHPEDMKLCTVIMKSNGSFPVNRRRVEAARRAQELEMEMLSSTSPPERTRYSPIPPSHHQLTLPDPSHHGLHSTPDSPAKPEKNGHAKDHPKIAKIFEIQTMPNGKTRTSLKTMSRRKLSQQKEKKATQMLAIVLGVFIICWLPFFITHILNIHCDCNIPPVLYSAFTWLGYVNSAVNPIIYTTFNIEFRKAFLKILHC

| SMILES | Ki (D(2) dopamine receptor) [nM] | Ki (D(4) dopamine receptor) [nM] | Ki (D(3) dopamine receptor) [nM] |
| --- | --- | --- | --- |
| C1=C(c2ccccc2)CCN(CCc2c[nH]c3ncccc23)C1 | 21 | 34 | 10 |
| C1=C(/C=C/c2ccccc2)CCN(CCc2cc3ccc[nH]c-3n2)C1 | 1300 | 30 | 25 |
| c1ccc2c(c1)CCN(Cc1c[nH]c3ncccc13)C2 | 640 | 7 | 170 |
| Clc1ccc(N2CCN(CCc3cc4cccnc4[nH]3)CC2)cc1 | 800 | 11.7 | 50 |
| COc1ccc(N2CCN(CCc3c[nH]c4ncccc34)CC2)cc1 | 900 | 26 | 530 |

The remaining lines, values ahead:

| Ki (D(2) dopamine receptor) [nM] | Ki (D(4) dopamine receptor) [nM] | Ki (D(3) dopamine receptor) [nM] | SMILES |
| --- | --- | --- | --- |
| 1100 | 1.8 | 1300 | c1ccc(CCC2CCN(Cc3c[nH]c4ncccc34)CC2)cc1 |
| 200 | 2 | 250 | c1ccc(CCC2CCN(Cc3cc4ccc[nH]c-4n3)CC2)cc1 |
| > 1500 |  | 3900 | COc1ccc(N2CCN(Cc3c[nH]c4ncccc34)CC2)cc1 |
| 280 | 6.5 | 180 | C1=C(/C=C/c2ccccc2)CCN(CCc2c[nH]c3ncccc23)C1 |
| 600 | 59 | 1100 | c1c[nH]c2nc(CN3CCc4ccccc4C3)cc-2c1 |
